Test [1] has as its system H69 cells. In words: Hemacytometer viability counts of H69 cells after CpG, MKR.4 and anti-class II treatment (Example 3). The following applies: 24 hours after anti-class II. The class given is cell-based, human. Here is the method:
Based on cell counts 500,000 H69 cells per well were set up in a 6 well plate-4.0*10^6/2.95*10^6=1.36 mL. The 1.36 mL was added to a new 15 mL conical tube and centrifuged for 5 minutes at 1000 rpm. The pellet was resuspended in 8 mL of H69 media and 1 mL of cell suspension was added to each well. 2 mL of H69 media was added to each well to bring the total volume/well up to 3 mL and the plates were placed in an incubator.
(§1) CpG was administered to activate the cells and induce CLIP expression. 15 uL of 1 mg/mL CpG was added into each CpG treated well. MKR.4 was added to select wells 24 hours after cell activation. The cells were incubated with 3 uL of 5 mg/mL stock MKR.4 in DMSO for 2 hours. Then fresh media with or without Anti MHC Class II was added (5 ul/well of stock at 1 mg/mL). 24 hours after Anti MHC Class II was added to the wells viability counts were performed.

Test [2] concerns WITT cells. The test is described as follows: Hemacytometer viability counts of WITT cells after CpG, MKR.4 and anti-class II treatment (Example 3). The format is cell-based, human. The following applies: 24 hours after anti-class II. Here is the method: 0.59*10^6 cells/mL*5 mL=[…] of WITT cells total were used. The cells were centrifuged at 1000 rpm for 5 minutes and the pellet was resuspended in 9 mL of WITT media. 1 mL of this cell suspension was added to each of […] and a culture flask. Another 2 mL of WITT media was added to each well in the 12 well plate to bring the total volume up to 3 mL. Another 9 mL was added to the T-25 culture flask to bring that total volume up to 10 mL. The plate and flask were placed in the incubator to allow adherence overnight.
as §1

The test system of test [3] is C57BL/6 splenocytes. The test is described as follows: Viability counts of C57BL/6 splenocytes after CpG, MKR.4 and Anti MHC Class II treatment (Example 2). Particulars: CpG 5 ug/mL, MKR.4 5 ug/mL, Anti MHC Class II 5 ug/mL, 24 hours after antibody. The class given is cell-based, mouse. Here is the method:
C57BL/6 were Prepared as Follows: • A spleen from a C57BL/6 mouse was placed in a cell strainer in a petri dish with 6 mL of PBS • The spleen was mashed to produce a cell suspension • The PBS splenocyte cell suspension was transferred into a labeled 15 mL conical tube and centrifuged for 5 minutes at 1000 rpm • The pellet was resuspended in 1 mL of PBS • Geys was prepared to lyse the red blood cells • 7 mL of DI H20; • 0.5 mL of Geys B • 0.5 mL of Geys C • weighed out […] of NH4Cl • Mixed the […] of NH4Cl with 2 mL of Geys A • Transferred the dissolved solution to a 15 mL conical tube with the H20, Geys B, and Geys C • 3 mL of the Geys solution was added to the 1 mL of PBS cell suspension, mixed well and placed on ice for 1 minute (frequently inverted solution in tube on ice during the 1 minute) • The mixture was centrifuged for 5 minutes at 1000 rpm, washed with 5 mL of PBS, centrifuged for 5 minutes at 1000 rpm and resuspended in 10 mL of PBS • A hemacytometer count was performed: 99.0*10^6 cells total (9.9*10^6 cells/mL) plate 4*10^6 cells per well*8 wells=32 million; 32*10^6/9.9*10^6=3.23 mL of this suspension needed to obtain 32*10^6 cells • Centrifuged 3.23 mL of the suspension for 5 minutes at 1000 rpm and resuspended the pellet in 8 mL of 5% FBS RPMI • 1 mL of suspension was added to each well (12-well plate) • Added another 2 mL of 5% FBS RPMI to each well to bring the final volume up to 3 mL
(§2) 8 wells were set up for the experiment for each cell type (CRL-5822 and C57BL/6) with no treatment, with CpG, MKR.4 peptide, with MKR.4 peptide+CpG and with or without addition of purified Anti Class-II (HLA-DR,DP,DQ) treatment in the amounts listed below.
CpG: (x) (1 mg/mL stock)=(5 ug/mL) (3 mL) x=15 ul
MKR.4: (x) (5 mg/mL stock)=(5 ug/mL) (3 mL) x=3 ul
Anti MHC Class II: Treat at 5 ug/mL; Stock is at 1 mg/mL; (x) (1 mg/mL)=(5 ug/mL) (3 mL); x=15 ul/well
(§3) CpG was administered to activate the cells and induce CLIP expression. MKR.4 was added to select wells 24 hours after cell activation. The cells were incubated with MKR.4 for 2 hours. Then fresh media with or without Anti MHC Class II was added. 24 hours after Anti MHC Class II was added to the wells viability counts were performed.

For test [4], the system named is CRL-5822 cells. In words: Viability counts of CRL-5822 cells after CpG, MKR.4 and Anti MHC Class II treatment (Example 2). The format is cell-based. The following applies: CpG 1 ug/mL, MKR.4 2.5 ug/mL, Anti MHC Class II 5 ug/mL, 24 hours after antibody. On the procedure: CRL-5822 were Prepared as Follows: • Removed the media from a flask of CRL-5822 using a sterile glass pipet and vacuum • Added 1.5 mL of accutase to the flask and placed in incubator for 20 minutes • Washed with 3 mL of PBS • Transferred all to a sterile 15 mL conical tube • Centrifuged for 5′ @ 1000 rpm • Removed supernatant with sterile glass pipet and vacuum • Resuspended in 3 mL of PBS • Performed a hemacytometer count indicating: 1.14*10^6 cells total of CRL-5822 cells • 1.14*10^6/8 wells+2 wells for culture maintenance=10 wells • 1.14*10^6/10 wells=[…] cells per well • Centrifuged the 3 mL of cell suspension for 5′ at 1000 rpm • Resuspended pellet in 10 mL of 10% FBS RPMI • 1 mL of this was added to 2 wells in a 12-well plate added 1 mL of fresh 10% FBS RPMI to each well to bring the total volume up to 2 mL.
as §2
CRL-5822 • CpG:(x) (1 mg/mL stock)=(1 ug/mL) (2 mL)x=2 ul • MKR.4: (x) (5 mg/mL stock)=(2.5 ug/mL) (2 mL) x=1 ul • Anti MHC Class II: Treat at 5 ug/mL; Stock is at 1 mg/mL; (x) (1 mg/mL)=(5 ug/mL) (2 mL); x=10 μl/well
as §3

Test [5] concerns MCF7 cells. The test is described as follows: Viability counts of MCF7 cells after B-estradiol treatment (Example 5). The class given is cell-based, human. The following applies: 10 nM B-estradiol, about 19 hours after treatment. Here is the method:
(§4) MCF7 (ATCC (cat# HTB-22)) and MCF7-ADR were grown in 10% FBS RPMI (Gibco RPMI 1640 media cat #21870076) supplemented with Fetal Bovine Serum, L-Glutamine, […], Hepes Buffer, Sodium Pyruvate, and Gentamicin). 1.07*10^6MCF7 cells were plated per well in 2 wells. […] ADR cells were plated per well in 2 wells. The cells were treated with B-estradiol from Sigma (Cat# E2758-250 mg, Lot#110M0138V). In order to prepare a 10 nM final concentration 27.238 mg of B-estradiol was weighed under the hood with a sterile weigh boat and spatula and dissolved in 1 mL of DMSO to make a 0.1M stock, which was then diluted twice: • 1:1000 dilution (1 ul of the 0.1M stock to 999 ul PBS) • 1:100 dilution (10 ul of the 1:000 dilution to 990 ul PBS) 20 ul of the 1:100 diluted solution was added to a final volume of 2 mL per treatment well. The MCF7 and MCF7 ADR were harvested about 19 hours after treatment. The cells were counted and viability is shown below.

Test [6] deals with MCF7 ADR cells. The test is described as follows: Viability counts of MCF7 ADR cells after B-estradiol treatment (Example 5). The format is cell-based, human. Particulars: 10 nM B-estradiol, about 19 hours after treatment. On the procedure:
as §4

In test [7] the test system is B cells from CLIP−/− (Invariant Chain deficient) mice. In words: Cell death of B cells isolated from CLIP-/- mice (Example 6, FIG. 6B). The class given is cell-based, mouse. Particulars: MKR.4 5 μg/mL, anti-MHCII 2.5 μg/mL, 24 hours. Here is the method: (§5) B cells were isolated from the spleens 12 week old male C57B/6 or CLIP−/− (Invariant Chain deficient) mice (Jackson Labs) using the Miltenyi Biotech B cell isolation kit according to the manufacturer's directions. Cells were incubated with or without CpG-ODN (1 mg/mL SEQ ID NO 9: 5′-[…]-3′, purchased from Invivogen) for 48 hours followed by treatment with 5 μg/mL MKR.4 (5 mg/mL, SEQ ID NO 8: ANS GFR IMA VLA SGG QY). Cells were incubated with MKR.4 for 1 hour and then washed followed by treatment with 2.5 μg/mL anti-MHCII (IA/IE, BD Bioscience). 24 hours after anti-MHCII treatment cells were analyzed for cell death using Acridine Organge/propidium iodide staining measured on the Cellometer (Nexcelom), propidium iodide and foreword Vs. side scatter staining measured on a BD FACS Canto II flow cytometer (BD Bioscience). Data was analyzed using FlowJo software (TreeStar).

Test [8] deals with B cells from C57B/6 mice. In words: Cell death of B cells isolated from C57B/6 mice (Example 6, FIG. 6A). Particulars: C57B/6 B cells stimulated with CpG 48 hours, MKR.4 5 μg/mL 1 hour, anti-MHCII 2.5 μg/mL, 24 hours. The class given is cell-based, mouse. Here is the method: as §5
Test [9] concerns CRL-5822 cells. The test is described as follows: Viability counts of CRL-5822 cells after LPS, MKR.4 and Anti MHC Class II treatment (Example 1). The format is cell-based. Particulars: LPS 1 ug/mL, MKR.4 2.5 ug/mL, Anti MHC Class II 5 ug/mL, 24 hours after antibody. On the procedure:
The media was removed from a flask of CRL-5822 using a sterile glass pipet and vacuum and 1.5 mL of accutase was added to the flask and placed in incubator for 20 minutes. The cells were washed with 3 mL of PBS and transferred to a sterile 15 mL conical tube and centrifuged for 5 minutes @ 1000 rpm. The supernatant was removed with sterile glass pipet and vacuum and the pellet resuspended in 5 mL of PBS. A cell count was performed using the TC-10 automated counter and 10 ul of cell suspension+10 ul of trypan blue was loaded into disposable counting slide and put in the TC-10. The following count was made: Live: 3.54*10^4 cells/mL*5 mL=177,000 cells total & 177,000/9 wells (8 wells in experiment+1 to maintain culture)=19,666 cells/well (flask).
The 5 mL of cell suspension was centrifuged for 5′ at 1000 rpm, the pellet was resuspended in 9 mL of 10% FBS RPMI. 1 mL of the cell suspension was added to a T-25 flask that had 4 mL of media in it and placed in the incubator. After culture 1 mL of the cell suspension was added to each well (8 wells in a labeled 24 well plate). A fresh vial of MKR.4 was resuspended in sterile DMSO. 7 mg of peptide was used to make a 5 mg/mL stock (7 mg/mL=5 mg/mL=1.4 mL of DMSO). The peptide was added into 1.4 mL of DMSO, under the hood to maintain sterility. Once all of the peptide was dissolved, 200 ul aliquots were made. […]

We go through 3 molecules from US20140220000A1, “MHC ENGAGEMENT AND CLIP MODULATION FOR THE TREATMENT OF DISEASE” (Scott & White Healthcare, priority 2011, published 2014).

For the molecule 5′-tcgtcgttttgtcgttttgtcgtt-3′ [CpG], in test [1], the Dead result is listed as “Dead: 0.40*10^6” and the Live entry is given as “Live: 1.65*10^6”. Besides, in test [2], the Dead was 0.13*10^6 and the Live is recorded as 0.94*10^6. Moreover, in [3], the “Total Dead” value is recorded as “Total Dead: 0.08 *10^6” and the “Total Live” value was “Total Live: 1.25 * 10^6”. Also, in test [4], the “Total Dead” value is “Total Dead: 0.07 *10^6” and the “Total Live” value was “Total Live: 0.35 * 10^6”.
Turning to `C[C@]12CC[C@@H]3c4ccc(O)cc4CC[C@H]3[C@@H]1CC[C@@H]2O` [B-Estradiol, B-estradiol], in test [5], the Dead is on record as 0.11*10^6 and the Live is 0.50*10^6. In addition, in [6], the Dead is recorded as 0.07*10^6 and the Live is 0.47*10^6.
In the case of “ANS GFR IMA VLA SGG QY (ANSGFRIMAVLASGGQY) [MKR.4]”, the values for the Dead entry in test [1] and in [2] were “Dead: 0.28*10^6” and 0.038*10^6, respectively. In addition, the Live entry is given as “Live: 1.46*10^6” in test [1] and 0.93*10^6 in test [2]. In addition, the “percent change in cell death” value is on record as “no effect on the cell death caused by the MHC class II antibody” in [7] and “restores the increase in cell death” in test [8]. Besides, the “Total Dead” value is “Total Dead: 0.07 *10^6” in [9], “Total Dead: 0.10 *10^6” in [3] and “Total Dead: 0.08 *10^6” in [4]. For the same molecule, the “Total Live” value in test [9] was “Total Live: 0.32 * 10^6”; in [3], “Total Live: 0.44 * 10^6”; in [4], “Total Live: 0.24 * 10^6”.
